In US10865216B2, “Tricyclic Gyrase inhibitors” (MERCK SHARP & DOHME CORP., priority 2012, dated 2020):
Values after ≈ are worked out from the molar mass of the structure shown. Where two headings read alike, the source gives them in different places.

Columns and labels:
E. coli ATCC 25922 = assay: MIC, E. coli ATCC 25922; assay type: cell-based; settings: for MIC: Escherichia coli
S. aureus ATCC 13709 = assay: MIC, S. aureus ATCC 13709; assay type: cell-based; settings: for MIC: Staphylococcus aureus
[1] = ATCC25922, E. coli, Alamar Blue read after overnight incubation at 35° C., read-out: MIC Ec
[2] = ATCC13709, S. aureus, Alamar Blue read after overnight incubation at 35° C., read-out: MIC Sa
[3] = E. coli, Alamar Blue read after overnight incubation at 35° C.
[4] = S. aureus, Alamar Blue read after overnight incubation at 35° C.

| SMILES | MIC (E. coli ATCC 25922; [1]) [µg/mL] | MIC (S. aureus ATCC 13709; [2]) [µg/mL] | MIC Ec (E. coli ATCC 25922; [3]) [µg/mL] | MIC Sa (S. aureus ATCC 13709; [4]) [µg/mL] | also measured |
| --- | --- | --- | --- | --- | --- |
| CNc1cc(F)c(Cl)c2c1[nH]c1nc(Oc3cnc4ccnn4c3)nc(N3C[C@H]4C[C@@H]3C[C@H]4N)c12 [Compound 10.85] | – | – | – | – | MIC Ec (E. coli ATCC 25922; Table 18, Ec): ≤ 0.5 µg/mL; MIC Sa (S. aureus ATCC 13709; Table 18, Sa): ≤ 0.5 µg/mL |
| CNc1cccc2c1[nH]c1nc(Oc3cnc4c(c3)ncn4C)cc(N3CC4C(N)C4C3)c12 (centres unmarked) [Compound 3.36] | 2 (≈ 4.54 µM) | ≤ 0.5 | – | – | – |
| CNc1cc(F)cc2c1[nH]c1nc(Oc3cnc(C(C)(C)C)nc3)nc(N3CC4C(N)C4C3)c12 (centres unmarked) [Compound 4.314] | – | – | ≤0.5 | ≤0.5 | – |
| CNc1cc(F)cc2c1[nH]c1nc(Oc3cnc4ccoc4c3)nc(N3CCC(C)(CN)C3)c12 (centres unmarked) | – | – | – | – | MIC (E. coli ATCC 25922; ATCC25922, Table 16, new R4 substituents, EC8 not defined, read-out: EC8 MIC): 0.5 µg/mL (≈ 1.08 µM); MIC (S. aureus ATCC 13709; ATCC13709, Table 16, new R4 substituents, read-out: SA MIC): ≤ 0.5 µg/mL |
| CNc1cc(F)cc2c1[nH]c1nc(Oc3cnc(C)nc3)nc(N3CC4(CC/C4=N\O)C3)c12 [Compound 10.61] | – | – | – | – | MIC Ec (E. coli ATCC 25922; Table 18, Ec): 2 µg/mL (≈ 4.46 µM); MIC Sa (S. aureus ATCC 13709; Table 18, Sa): 0.03 µg/mL (≈ 0.0669 µM) |
| CNc1cc(F)c(Cl)c2c1[nH]c1nc(Oc3cnc(C)nc3)nc(N3C[C@H]4CCN[C@H]4C3)c12 [Compound 10.64] | – | – | – | – | MIC Ec (E. coli ATCC 25922; Table 18, Ec): ≤ 0.5 µg/mL; MIC Sa (S. aureus ATCC 13709; Table 18, Sa): ≤ 0.5 µg/mL |
| CNc1nccc2c1[nH]c1nc(Oc3cncnc3)nc(N3CC[C@@H](N)C3)c12 [Compound 7.02] | 32 (≈ 84.8 µM) | > 64 | – | – | – |
| CNc1cc(F)cc2c1[nH]c1nc(Oc3cnc(SC)nc3)nc(N3CC4C(N)C4C3)c12 (centres unmarked) [Compound 4.193] | – | – | ≤0.5 | ≤0.5 | – |
| CNc1cc(F)cc2c1[nH]c1nc(Oc3cnc(SC)nc3)nc(N3CC4CC(N)C4C3)c12 (centres unmarked) [Compound 4.201] | – | – | ≤0.5 | ≤0.5 | – |
| CNc1cc(F)c(F)c2c1[nH]c1nc(Oc3cnc4ccnn4c3)nc(N3C[C@H]4C[C@@H]3C[C@H]4N)c12 [Compound 10.21] | – | – | – | – | MIC Ec (E. coli ATCC 25922; Table 18, Ec): ≤ 0.5 µg/mL; MIC Sa (S. aureus ATCC 13709; Table 18, Sa): ≤ 0.5 µg/mL |
| CNc1cc(F)cc2c1[nH]c1nc(Oc3cnc(C4CCC4)nc3)nc(N3CC4C(N)C4C3)c12 (centres unmarked) [Compound 4.286] | – | – | ≤0.5 | ≤0.5 | – |
| CNc1cc(F)c(Cl)c2c1[nH]c1nc(Oc3cnc(C)nc3)nc(N3CC4(CC[C@H]4N)C3)c12 [Compound 10.66] | – | – | – | – | MIC Ec (E. coli ATCC 25922; Table 18, Ec): ≤ 0.5 µg/mL; MIC Sa (S. aureus ATCC 13709; Table 18, Sa): ≤ 0.5 µg/mL |
| CNc1ncnc2c1[nH]c1nc(Oc3cnc(C)nc3)nc(N3CC4C(N)C4C3)c12 (centres unmarked) [Compound 7.05] | 64 (≈ 158 µM) | 8 (≈ 19.8 µM) | – | – | – |
| CNc1cc(F)c2c3c1[nH]c1nc(Oc4cnc(C)nc4)nc(c13)NC(=N)NC2 | – | – | – | – | EC8 MIC (E. coli ATCC 25922; Table 12, Z is C and connected to R4, EC8 not defined): 8 µg/mL; SA MIC (S. aureus ATCC 13709; Table 12, Z is C and connected to R4): 4 µg/mL |
| CNc1ncnc2c1[nH]c1nc(-c3cncnc3)nc(N3CC4C(N)C4C3)c12 (centres unmarked) [Compound 7.11] | > 64 | > 64 | – | – | – |
| CNc1cccc2c1[nH]c1nc(Oc3cncnc3)cc(N3CC(N)C4(CC4)C3)c12 (centres unmarked) [Compound 3.45] | ≤ 0.5 | ≤ 0.5 | – | – | – |
| CNc1cc(F)cc2c1[nH]c1nc(Oc3cnc(C)nc3)nc(-c3ccc(F)cc3CN)c12 [Compound 4.445] | > 16 | 2 (≈ 4.47 µM) | – | – | – |
| CNc1cc(F)cc2c1[nH]c1nc(Oc3cnc(N4CCCC4=O)nc3)nc(N3CC4C(N)C4C3)c12 (centres unmarked) [Compound 4.345] | – | – | 2 (≈ 4.09 µM) | ≤0.5 | – |
| CNc1cc(F)cc2c1[nH]c1nc(Oc3cnc(C)nc3)nc(-c3ccc(Cl)c(N)c3)c12 [Compound 4.432] | > 16 | ≤ 0.5 | – | – | – |
| CNc1cccc2c1[nH]c1nc(Sc3cnc4cccnc4c3)nc(N3CCN(C(=O)C4CCCO4)CC3)c12 (centres unmarked) [Compound 1.69] | 8 (≈ 14.8 µM) | ≤ 0.5 | – | – | – |
| CNc1cc(F)cc2c1[nH]c1nc(Oc3cnc(C)nc3)nc(N3CC(N)C3)c12 [Compound 4.138] | – | – | ≤0.5 | ≤0.5 | – |
| CNc1cccc2c1[nH]c1nc(Sc3cnc4cccnc4c3)nc(N3CCC4(CC4N)C3)c12 (centres unmarked) [Compound 1.26] | – | – | 1 (≈ 2.13 µM) | ≤0.5 | – |
| CNc1cc(F)cc2c1[nH]c1nc(Oc3cnc4c(c3)ncn4C)nc(N3CC4CC(N)C4C3)c12 (centres unmarked) [Compound 4.226] | – | – | 2 (≈ 4.22 µM) | ≤0.5 | – |
| CNc1cc(F)cc2c1[nH]c1nc(Oc3cnc(C)nc3)nc(N3CC4(CC(N)C4)C3)c12 [Compound 4.153] | – | – | 2 (≈ 4.6 µM) | ≤0.5 | – |
| CNc1cc(F)cc2c1[nH]c1nc(Sc3cnc4ccc[n+]([O-])c4c3)nc(N3CC4C(N)C4C3)c12 (centres unmarked) [Compound 1.50] | ≤ 0.5 | ≤ 0.5 | – | – | – |
| CNc1cccc2c1[nH]c1nc(Oc3cnc(N4CCOCC4)nc3)cc(N3CC4C(N)C4C3)c12 (centres unmarked) [Compound 3.26] | > 16 | > 16 | – | – | – |
| CNc1cc(F)c(F)c2c1[nH]c1nc(Oc3cnc4c(C)cnn4c3)nc(N3C[C@H]4C[C@@H]3C[C@H]4N)c12 [Compound 10.26] | – | – | – | – | MIC Ec (E. coli ATCC 25922; Table 18, Ec): ≤ 0.5 µg/mL; MIC Sa (S. aureus ATCC 13709; Table 18, Sa): ≤ 0.5 µg/mL |
| CNc1cc(F)cc2c1[nH]c1nc(Oc3cnc(C(C)O)nc3)nc(N3CC4CC(C3)C4N)c12 (centres unmarked) [Compound 10.82] | – | – | – | – | MIC Ec (E. coli ATCC 25922; Table 18, Ec): 0.5 µg/mL (≈ 1.08 µM); MIC Sa (S. aureus ATCC 13709; Table 18, Sa): 0.13 µg/mL (≈ 0.28 µM) |
